Values after ≈ are worked out from the molar mass of the structure shown.

Assay [1] relates to Plasmodium falciparum strain W2. As to the kind of experiment: In vitro screening protocol II, [3H] hypoxanthine incorporation IC50 assay, W2. Type of assay: cell-based. Particulars: P. falciparum W2; for IC50: Plasmodium falciparum. How it is done: (§1) The protocol described here is a modification of the in vitro screening protocol I and the details of the methodology are given below.
(§2) Plasmodium falciparum strains 3D7A and W2.
(§3) The culture medium comprised RPMI 1640 with 25 mM HEPES, sodium bicarbonate and glutamine (GIBCO™ cat. ref.: 52400), supplemented with 10% of pooled human sera AB (Bioreclamation HMSRM-AB)) and HT supplement (0.15 mM hypoxanthine and 24 μM thymidine), (GIBCO™ cat. ref.: 41065). Human sera were decomplemented 30 min. at 56° C., aliquoted and stored frozen at −20° C. until use in this culture medium.
(§4) This culture medium (“complete medium”) was usually prepared fresh just before use and pre-warmed to 37° C.
(§5) Red blood cells AB− stock suspensions were prepared from whole blood bags coming from incomplete blood donation, provided by the Spanish Red Cross (<25 days after sampling). This “whole blood” was aliquoted and stored at 4° C.
(§6) To prepare red blood cells for the assay, the whole blood was centrifuged and washed 3 times with RPMI without serum. The upper phase, containing white blood cells was removed. The washed red blood cells were kept as a 50% suspension in complete medium. The prepared cells were stored at 4° C. and were employed in the assay at any time up to 4 days after preparation.
(§7) Test compounds were dissolved at 2 mg/ml in 100% DMSO on the day of the assay. If necessary, complete dissolution was achieved by gentle heating (the mixture was heated at a temperature <37° C.) and sonication (sonication bath).
(§8) For IC50 determinations, 10 serial 2-fold dilutions were prepared in complete medium in the presence of a constant amount of DMSO. Any obvious signs of insolubility of the stock solutions in 100% DMSO or precipitation when these solutions were diluted in assay media, were recorded.
(§9) Plasmodium falciparum strains were maintained in complete medium at 5% of hematocrit in continuous culture using a method adapted from Trager W. and Jensen J. B. (Human malaria parasites in continuous culture Science 193 (4254) (1976) 673-675) and Trager W. (Cultivation of malaria parasites Methods Cell Biol. 45 (1994) 7-26).
(§10) The parasitemia was calculated by counting the percentage of parasitized erythrocytes by optical microscopy. Thin films of blood were made every day from each culture flask, fixed with methanol and stained for 10 min. in Giemsa (Merck, cat ref.: 1.09204) at 10% in buffered water pH 7.2. The glass slides were observed and counted with an optical microscope (Nikon, Eclipse E200) equipped with a 100× immersion oil objective.
(§11) The culture was maintained at 5% of hematocrit, with a daily change of medium and was diluted when parasitemia had reached about 5%.
(§12) [^3H] Hypoxanthine incorporation assay was conducted using a method adapted from Desjardins R. E. et al. (Quantitative assessment of antimalarial activity in vitro by a semiautomated microdilution technique. Antimicrob. Agents Chemother., 16 (6) (1979) 710-718). The assays were performed in 96 wells flat bottom microplates.
(§13) 1. Serial dilutions of each test compound (25 μl of a 5× solution/well) were deposited in one row of assay microtiter plate. Compounds of this invention were tested in this assay. Chloroquine and Azithromycin were used as control compounds for each assay.
(§14) 2. […] 100 μl of the resulting suspension was distributed into each well of columns 1-11 of assay microtiter plate leading to a final volume of 125 μl per well, at 1.2% of hematocrit and 0.4% of parasitemia/well.
(§15) 3. In each plate, 2 columns were reserved for control wells: • Column 11 (comprising wells A11-H11): Positive control wells: Untreated PRBCs to compare with cultures treated with test compounds. • Column 12 (comprising wells A12-H12): • Background value wells: Uninfected RBCs—blank control to obtain the background reading from RBCs without parasites (at 1.2% of hematocrite value).
(§16) 4. The plates were incubated at 37° C. under low oxygen atmosphere. […]

Assay [2] relates to Plasmodium falciparum strain 3D7A. The experiment in a line: In vitro screening protocol II, [3H] hypoxanthine incorporation IC50 assay, 3D7A. Type of assay: cell-based. Particulars: P. falciparum 3D7A; for IC50: Plasmodium falciparum. How it is done: as §1, §2, §3, §4, §5, §6, §7, §8, §9, §10, §11, §12, §13, §14, §15, §16
A further assay concerns P. falciparum TM91C235. As to the kind of experiment: In vitro screening protocol I, [3H]-hypoxanthine incorporation, TM91C235. Type of assay: cell-based, Plasmodium falciparum. The following applies: Plasmodium falciparum, In vitro screening protocol I; P. falciparum TM91C235; read-out: IC50 TM91C235.
The test system of assay [3] is P. falciparum W2 (CDC/Indochina III, W-2). As to the kind of experiment: In vitro screening protocol I, [3H]-hypoxanthine incorporation, W2. Type of assay: cell-based, Plasmodium falciparum. Particulars: Plasmodium falciparum; In vitro screening protocol I; P. falciparum W2; read-out: IC50 W2. In short, it runs like this:
(§17)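 Asexual blood-stage P. falciparum was cultured in human A+ erythrocytes at 37 °C under 5% CO2/5% O2, and growth was measured by [3H]-hypoxanthine incorporation over 72 h total. TM91C235 was prescreened at 25,000, 2,500 and 25 ng/ml in folate-free medium. D-6 and W-2 IC50s came from 11-point two-fold dilutions by logistic fit.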

Assay [4] deals with P. falciparum D6 (CDC/Sierra Leone I, D-6). The experiment in a line: In vitro screening protocol I, [3H]-hypoxanthine incorporation, D6. Format: cell-based, Plasmodium falciparum. The following applies: Plasmodium falciparum; In vitro screening protocol I; P. falciparum D6; read-out: IC50 D6. The essentials: as §17

In the case of “9a-(3-{[(4-Nitrophenyl)acetyl]amino}propyl)-9-deoxo-9-dihydro-9a-aza-9a-homoerythromycin A Formiate Salt [Example 64]”, the “IC50 W2” value in assay [1] is “C (200 < X ≦ 1000)”. In assay [2], the “IC50 3D7A” value is “D (1000 < X ≦ 2500)”.

As for `CCC1OC(=O)C(C)C(OC2CC(C)(OC)C(O)C(C)O2)C(C)C(OC2OC(C)CC(N(C)C)C2O)C(C)(O)CC(C)CN(CCCNC(=O)Cc2cccc(Cl)c2)C(C)C(O)C1(C)O.O=CO` (centres unmarked) [Example 62, 9a-(3-{[(3-Chlorophenyl)acetyl]amino}propyl)-9-deoxo-9-dihydro-9a-aza-9a-homoerythromycin A Formiate Salt], the “IC50 W2” value in assay [1] is “C (200 < X ≦ 1000)”. For the same compound, the “IC50 3D7A” value in assay [2] was “C (200 < X ≦ 1000)”.

In the case of `CCC1OC(=O)C(C)C(OC2CC(C)(OC)C(O)C(C)O2)C(C)C(OC2OC(C)CC(N(C)C)C2O)C(C)(O)CC(C)CN(CCCNC(=O)Cc2ccc(OC)cc2)C(C)C(O)C1(C)O.O=CO` (centres unmarked) [Example 58, 9a-[3-({[4-(Methyloxy)phenyl]acetyl}amino)propyl]-9-deoxo-9-dihydro-9a-aza-9a-homoerythromycin A Formiate Salt], the “IC50 W2” value in assay [1] is “C (200 < X ≦ 1000)”. For the same compound, in assay [2], the “IC50 3D7A” value is given as “G (3500 < X ≦ 5000)”.

As for `CC[C@H]1OC(=O)[C@H](C)[C@@H](O[C@H]2C[C@@](C)(OC)[C@@H](O)[C@H](C)O2)[C@H](C)[C@@H](O[C@@H]2O[C@H](C)C[C@H](N(C)C)[C@H]2O)[C@](C)(O)C[C@@H](C)CN(CCCNCc2ccc3ccccc3c2)[C@H](C)[C@@H](O)[C@]1(C)O` [Example 54, 9a-{3-[(Naphtalen-2-yl-methyl)amino]propyl}-9-deoxo-9-dihydro-9a-aza-9a-homoerythromycin A], the IC50 is below 0.1 µg/mL in assay [1] and 0.1 to 0.2 µg/mL (≈ 0.107 to 0.215 µM) in assay [2].

As for `CC(=O)O.CC(=O)O.CCC1OC(=O)C(C)C(OC2CC(C)(OC)C(O)C(C)O2)C(C)C(OC2OC(C)CC(N(C)C)C2O)C(C)(O)CC(C)CN(CCCNCc2ccnc3ccccc23)C(C)C(O)C1(C)O` (centres unmarked) [Example 78, 9a-{3-[(Quinolin-4-yl-methyl)amino]propyl}-9-deoxo-9-dihydro-9a-aza-9a-homoerythromycin A Diacetate Salt], the “IC50 W2” value in assay [1] is “A (X ≦ 100)”. Also, the “IC50 3D7A” value in assay [2] is “C (200 < X ≦ 1000)”.

As for `CCC1OC(=O)C(C)C(OC2CC(C)(OC)C(O)C(C)O2)C(C)C(OC2OC(C)CC(N(C)C)C2O)C(C)(O)CC(C)CN(CCCNC(=O)Cc2ccc(Cl)cc2)C(C)C(O)C1(C)O.O=CO` (centres unmarked) [Example 63, 9a-(3-{[(4-Chlorophenyl)acetyl]amino}propyl)-9-deoxo-9-dihydro-9a-aza-9a-homoerythromycin A Formiate Salt], the “IC50 W2” value in assay [1] is “C (200 < X ≦ 1000)”. In addition, the “IC50 3D7A” value in assay [2] is on record as “C (200 < X ≦ 1000)”.

For `CC[C@H]1OC(=O)[C@H](C)[C@@H](O[C@H]2C[C@@](C)(OC)[C@@H](O)[C@H](C)O2)[C@H](C)[C@@H](O[C@@H]2O[C@H](C)C[C@H](N(C)C)[C@H]2O)[C@](C)(O)C[C@@H](C)CN(CCCNC(=O)CCc2ccc(F)cc2)[C@H](C)[C@@H](O)[C@]1(C)O.O=CO` [Example 70, 9a-(3-{[3-(4-Fluorophenyl)propanoyl]amino}propyl)-9-deoxo-9-dihydro-9a-aza-9a-homoerythromycin A Formiate Salt], the “IC50 W2” value in assay [1] is “C (200 < X ≦ 1000)”. In addition, the “IC50 3D7A” value in assay [2] was “D (1000 < X ≦ 2500)”.

Regarding `CC(=O)O.CC(=O)O.CC(=O)O.CCC1OC(=O)C(C)C(O)C(C)C(OC2OC(C)CC(N(C)C)C2O)C(C)(O)CC(C)CN(CCCNc2ccnc3cc(Cl)ccc23)C(C)C(O)C1(C)O` (centres unmarked) [Example 79], the “IC50 W2” value in assay [1] is given as “A (X ≦ 100)”. In assay [2], the “IC50 3D7A” value is “A (X ≦ 100)”.

As for `CC[C@H]1OC(=O)[C@H](C)[C@@H](O)[C@H](C)[C@@H](O)[C@](C)(O)C[C@@H](C)CN(CCCNc2ccnc3cc(Cl)ccc23)[C@H](C)[C@@H](O)[C@]1(C)O` [Example 56], the IC50 in assay [1] was 0.1 to 0.2 µg/mL (≈ 0.157 to 0.313 µM); in assay [2], below 0.1 µg/mL.

For the compound `CC[C@H]1OC(=O)[C@H](C)[C@@H](O[C@H]2C[C@@](C)(OC)[C@@H](O)[C@H](C)O2)[C@H](C)[C@@H](O[C@@H]2O[C@H](C)C[C@H](N(C)C)[C@H]2O)[C@](C)(O)C[C@@H](C)CN(CCCNC(=O)C(Cc2ccc(F)cc2)NC(C)=O)[C@H](C)[C@@H](O)[C@]1(C)O.O=CO` (some centres unmarked) [Example 60, 9a-{3-[(N-Acetyl-4-fluorophenylalanyl)amino]propyl}-9-deoxo-9-dihydro-9a-aza-9a-homoerythromycin A Formiate Salt], the “IC50 W2” value in assay [1] is reported as “D (1000 < X ≦ 2500)”. The “IC50 3D7A” value in assay [2] is reported as “H (5000 < X ≦ 10000)”.

Take `CC(=O)O.CC(=O)O.CC(=O)O.CCC1OC(=O)C(C)C(OC2CC(C)(OC)C(O)C(C)O2)C(C)C(OC2OC(C)CC(N(C)C)C2O)C(C)(O)CC(C)CN(CCCNc2ccnc3cc(Cl)ccc23)C(C)C(O)C1(C)O` (centres unmarked) [Example 77]: the “IC50 W2” value in assay [1] is recorded as “A (X ≦ 100)”. The “IC50 3D7A” value in assay [2] was “A (X ≦ 100)”.

Regarding `CC[C@H]1OC(=O)[C@H](C)[C@@H](O[C@H]2C[C@@](C)(OC)[C@@H](O)[C@H](C)O2)[C@H](C)[C@@H](O[C@@H]2O[C@H](C)C[C@H](N(C)C)[C@H]2O)[C@](C)(O)C[C@@H](C)CN(CCCNCC2CCNc3ccccc32)[C@H](C)[C@@H](O)[C@]1(C)O` (some centres unmarked) [Example 55, 9a-{3-[(1,2,3,4-tetrahydro-quinolin-4-yl-methyl)amino]propyl}-9-deoxo-9-dihydro-9a-aza-9a-homoerythromycin A], the results for the IC50 in assay [1] and in assay [2] were below 0.1 µg/mL and 0.2 to 1 µg/mL (≈ 0.213 to 1.07 µM), respectively.

As to `CC[C@H]1OC(=O)[C@H](C)[C@@H](O[C@H]2C[C@@](C)(OC)[C@@H](O)[C@H](C)O2)[C@H](C)[C@@H](O[C@@H]2O[C@H](C)C[C@H](N(C)C)[C@H]2O)[C@](C)(O)C[C@@H](C)CN(CCCNC(=O)Cc2ccccc2[N+](=O)[O-])[C@H](C)[C@@H](O)[C@]1(C)O.O=CO` [Example 67, 9a-(3-{[(2-Nitrophenyl)acetyl]amino}propyl)-9-deoxo-9-dihydro-9a-aza-9a-homoerythromycin A Formiate Salt], the “IC50 W2” value in assay [1] was “D (1000 < X ≦ 2500)”. Further, in assay [2], the “IC50 3D7A” value was “H (5000 < X ≦ 10000)”.

On to `CC[C@H]1OC(=O)[C@H](C)[C@@H](O[C@H]2C[C@@](C)(OC)[C@@H](O)[C@H](C)O2)[C@H](C)[C@@H](O[C@@H]2O[C@H](C)C[C@H](N(C)C)[C@H]2O)[C@](C)(O)C[C@@H](C)CN(CCCNc2ccnc3ccccc23)[C@H](C)[C@@H](O)[C@]1(C)O` [Example 22, 9a-[3-(Quinolin-4-yl-amino)propyl]-9-deoxo-9-dihydro-9a-aza-9a-homoerythromycin A], for which the IC50 (in the assay on P. falciparum TM91C235; in assay [3]; in assay [4]) was below 0.1 µg/mL each time.

For the origin of these results see patent publication US20090105301A1, “9A-SUBSTITUTED AZALIDES FOR THE TREATMENT OF MALARIA” (priority 2006, published 2009).
